Structures can show the parent of a compound that is named as a salt.
The molecules below were run against T1, WT/R232 STING protein (Homo sapiens, UniProt Q86WV6, H232R) (assay: Luciferase reporter assay in HEK293T-hSTING-Luciferase cells, WT/R232). Details: 20 hr stimulation, read-out: R232 Activity (EC50 range).
T1 construct: host or cells: HEK293T
Format: cell-based
Outline: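 Clonal HEK293T cells stably expressing human STING R232 plus an ISRE/ISG54-driven luciferase reporter, 5×10^5 per well, stimulated with compounds for 20 h. Secreted luciferase in supernatant measured by luminescence; […].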

T1 sequence (Q86WV6 whole entry H232R): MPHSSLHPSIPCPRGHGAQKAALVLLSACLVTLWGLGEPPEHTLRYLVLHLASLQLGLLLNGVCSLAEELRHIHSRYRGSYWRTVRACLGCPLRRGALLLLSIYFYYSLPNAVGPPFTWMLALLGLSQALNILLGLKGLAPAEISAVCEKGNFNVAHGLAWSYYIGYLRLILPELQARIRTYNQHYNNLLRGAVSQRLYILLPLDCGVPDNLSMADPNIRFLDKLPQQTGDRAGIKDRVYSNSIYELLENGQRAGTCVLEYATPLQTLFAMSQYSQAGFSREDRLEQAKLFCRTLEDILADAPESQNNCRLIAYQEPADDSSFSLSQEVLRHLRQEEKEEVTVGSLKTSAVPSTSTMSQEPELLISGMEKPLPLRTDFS

Structure (SMILES)	EC50 [µM]
NCc1cc(C(=O)NCc2c(F)cc(F)cc2F)cc2c1SCC(=O)N2Cc1ccc(F)cc1 [Example 224, 8-(aminomethyl)-4-(4-fluorobenzyl)-3-oxo-N-(2,4,6-trifluorobenzyl)-3,4-dihydro-2H-benzo[b][1,4] thiazine-6-carboxamide hydrochloride]	> 10
NC(=O)c1cc(C(=O)NCc2c(F)cc(F)cc2F)cc2c1SCC(=O)N2Cc1ccc(F)cc1 [Example 225, 4-(4-fluorobenzyl)-3-oxo-N6-(2,4,6-trifluorobenzyl)-3,4-dihydro-2H-benzo[b][1,4] thiazine-6,8-dicarboxamide]	> 10
Cc1cc(C(=O)NCc2ccco2)cc2c1SCC(=O)N2Cc1ccccc1F [Example 226, 4-(2-Fluorobenzyl)-N-(furan-2-ylmethyl)-8-methyl-3-oxo-3,4-dihydro-2H-benzo[b-1,4]thiazine-6-carboxamide]	> 10
O=C(NCc1ccco1)c1cc(C2CC2)c2c(c1)N(Cc1ccccc1F)C(=O)CS2 [Example 227]	> 10
O=C(NCc1ccco1)c1cc2c(cc1Br)SCC(=O)N2Cc1ccccc1F [Example 228, 7-bromo-4-(2-fluorobenzyl)-N-(furan-2-ylmethyl)-3-oxo-3,4-dihydro-2H-benzo[b][1,4]thiazine-6-carboxamide]	> 10
O=C(NCc1ccco1)c1cc2c(cc1C1CC1)SCC(=O)N2Cc1ccccc1F [Example 229, 7-cyclopropyl-4-(2-fluorobenzyl)-N-(furan-2-ylmethyl)-3-oxo-3,4-dihydro-2H-benzo[b-1,4]thiazine-6-carboxamide]	> 10
Cc1cc2c(cc1C(=O)NCc1ccco1)N(Cc1ccccc1)C(=O)CS2 [Example 230, 4-Benzyl-N-(furan-2-ylmethyl)-7-methyl-3-oxo-3,4-dihydro-2H-benzo[b-1,4]thiazine-6-carboxamide]	> 10
O=C(NCc1ccco1)c1ccc2c(c1)N(Cc1c(F)cccc1Cl)C(=O)CO2 [Example 231, 4-(2-Chloro-6-fluorobenzyl)-N-(furan-2-ylmethyl)-3-oxo-3,4-dihydro-2H-benzo[b-1,4]oxazine-6-carboxamide]	> 10
O=C(NCc1c(F)cc(F)cc1F)c1cnc2c(c1)N(Cc1cc(F)cc(F)c1)C(=O)CO2 [Example 236, 1-(3,5-difluorobenzyl)-2-oxo-N-(2,4,6-trifluorobenzyl)-2,3-dihydro-1H-pyrido[2,3-b-1,4]oxazine-7-carboxamide]	> 10
C[C@@H]1Oc2ncc(C(=O)NCc3c(F)cc(F)cc3F)cc2N(Cc2cc(F)cc(F)c2)C1=O [Example 237, (S)-1-(3,5-difluorobenzyl)-3-methyl-2-oxo-N-(2,4,6-trifluorobenzyl)-2,3-dihydro-1H-pyrido[2,3-b-1,4]oxazine-7-carboxamide]	1 to 10
C[C@H]1Oc2ncc(C(=O)NCc3c(F)cc(F)cc3F)cc2N(Cc2cc(F)cc(F)c2)C1=O [Example 238, (R)-1-(3,5-difluorobenzyl)-3-methyl-2-oxo-N-(2,4,6-trifluorobenzyl)-2,3-dihydro-1H-pyrido[2,3-b-1,4]oxazine-7-carboxamide]	1 to 10
O=C(NCc1c(F)cc(F)cc1F)c1cnc2c(c1)N(Cc1c(F)cccc1Cl)C(=O)CO2 [Example 239, 1-(2-chloro-6-fluorobenzyl)-2-oxo-N-(2,4,6-trifluorobenzyl)-2,3-dihydro-1H-pyrido[2,3-b-1,4]oxazine-7-carboxamide]	> 10
CC1Oc2ncc(C(=O)NCc3c(F)cc(F)cc3F)cc2N(Cc2cc(F)cc(F)c2)C1=O (stereo not drawn) [Example 240, 1-(3,5-difluorobenzyl)-3-methyl-2-oxo-N-(2,4,6-trifluorobenzyl)-2,3-dihydro-1H-pyrido[2,3-b-1,4]oxazine-7-carboxamide]	1 to 10
C[C@@H]1Oc2ncc(C(=O)NCc3cc4ccccc4o3)cc2N(Cc2cc(F)cc(F)c2)C1=O [Example 241, (S)-N-(benzofuran-2-ylmethyl)-1-(3,5-difluorobenzyl)-3-methyl-2-oxo-2,3-dihydro-1H-pyrido[2,3-b][1,4]oxazine-7-carboxamide]	1 to 10
CC1Oc2ncc(C(=O)NCc3cccc(C(F)(F)F)c3)cc2N(Cc2c(F)cccc2Cl)C1=O (stereo not drawn) [Example 244, 1-(2-chloro-6-fluorobenzyl)-3-methyl-2-oxo-N-(3-(trifluoromethyl)benzyl)-2,3-dihydro-1H-pyrido[2,3-b][1,4]oxazine-7-carboxamide]	> 10
O=C(NCc1ccco1)c1ccc2c(c1)N(Cc1c(F)cccc1Cl)C(=O)C[S+]2[O-] (stereo not drawn) [Example 245, 4-(2-chloro-6-fluorobenzyl)-N-(furan-2-ylmethyl)-3-oxo-3,4-dihydro-2H-benzo[b][1,4]thiazine-6-carboxamide 1-oxide]	> 10
O=C(NCc1ccco1)c1ccc2c(c1)N(Cc1ccccc1)CCS2 [Example 246, 4-Benzyl-N-(furan-2-ylmethyl)-3,4-dihydro-2H-benzo[b-1,4]thiazine-6-carboxamide]	> 10
O=C(NCc1ccco1)c1ccc2c(c1)N(Cc1ccccc1F)CCS2 [Example 247, 4-(2-fluorobenzyl)-N-(furan-2-ylmethyl)-3,4-dihydro-2H-benzo[b-1,4]thiazine-6-carboxamide]	> 10

Structure (SMILES)	EC50 [µM]
O=C(NCc1ccco1)c1ccc2c(c1)N(CC(O)c1ccccc1)CCS2 (stereo not drawn) [Example 248, N-(furan-2-ylmethyl)-4-(2-hydroxy-2-phenylethyl)-3,4-dihydro-2H-benzo[b-1,4]thiazine-6-carboxamide]	> 10
O=C(CN1CCSc2ccc(C(=O)NCc3ccco3)cc21)c1ccccc1 [Example 249, N-(furan-2-ylmethyl)-4-(2-oxo-2-phenylethyl)-3,4-dihydro-2H-benzo[b][1,4]thiazine-6-carboxamide]	> 10
O=C(NCc1ccco1)c1ccc2c(c1)N(Cc1ccc(Cl)cc1)CCS2 [Example 250, 4-(4-Chlorobenzyl)-N-(furan-2-ylmethyl)-3,4-dihydro-2H-benzo[b-1,4]thiazine-6-carboxamide]	> 10
O=C(NCc1ccco1)c1ccc2c(c1)N(Cc1ccccc1)CC[S+]2[O-] (stereo not drawn) [Example 251, 4-Benzyl-N-(furan-2-ylmethyl)-3,4-dihydro-2H-benzo[b-1,4]thiazine-6-carboxamide 1-oxide]	> 10
O=C(NCc1ccco1)c1ccc2c(c1)N(Cc1ccccc1)CCS2(=O)=O [Example 252, 4-Benzyl-N-(furan-2-ylmethyl)-3,4-dihydro-2H-benzo[b-1,4]thiazine-6-carboxamide 1,1-dioxide]	> 10
O=C(NCc1ccco1)c1ccc2c(c1)N(C(=O)c1ccccc1F)CCS2 [Example 253, 4-(2-Fluorobenzoyl)-N-(furan-2-ylmethyl)-3,4-dihydro-2H-benzo[b-1,4]thiazine-6-carboxamide]	> 10
O=C(NCc1ccco1)c1ccc2c(c1)N(C(=O)c1ccccc1F)CCS2(=O)=O [Example 254, 4-(2-Fluorobenzoyl)-N-(furan-2-ylmethyl)-3,4-dihydro-2H-benzo[b-1,4]thiazine-6-carboxamide 1,1-dioxide]	> 10
O=C(NCc1ccco1)c1ccc2c(c1)N(C(=O)c1ccccc1)CCS2 [Example 255, 4-benzoyl-N-(furan-2-ylmethyl)-3,4-dihydro-2H-benzo[b][1,4]thiazine-6-carboxamide]	> 10
O=C(NCc1ccco1)c1ccc2c(c1)N(C(=O)c1c(F)cccc1Cl)CCS2 [Example 256, 4-(2-chloro-6-fluorobenzoyl)-N-(furan-2-ylmethyl)-3,4-dihydro-2H-benzo[b][1,4]thiazine-6-carboxamide]	> 10
O=C(NCC1CCCCC1)c1ccc2c(c1)N(C(=O)c1c(F)cccc1Cl)CCS2 [Example 257, 4-(2-chloro-6-fluorobenzoyl)-N-(cyclohexylmethyl)-3,4-dihydro-2H-benzo[b][1,4]thiazine-6-carboxamide]	1 to 10
CC1CN(C(=O)Cc2ccccc2)c2cc(C(=O)NCc3c(F)cc(F)cc3F)ccc2S1 (stereo not drawn) [Example 259, 2-methyl-4-(2-phenylacetyl)-N-(2,4,6-trifluorobenzyl)-3,4-dihydro-2H-benzo[b][1,4]thiazine-6-carboxamide]	> 10
O=C(NCc1c(F)cc(F)cc1F)c1ccc2c(c1)N(C(=O)c1ccncc1)CCS2 [Example 260, 4-isonicotinoyl-N-(2,4,6-trifluorobenzyl)-3,4-dihydro-2H-benzo[b][1,4]thiazine-6-carboxamide]	> 10
O=C(NCc1c(F)cc(F)cc1F)c1ccc2c(c1)N(S(=O)(=O)c1ccccc1)CCS2 [Example 261, 4-(Phenylsulfonyl)-N-(2,4,6-trifluorobenzyl)-3,4-dihydro-2H-benzo[b-1,4]thiazine-6-carboxamide]	1 to 10
O=C(NCc1c(F)cc(F)cc1F)c1ccc2c(c1)N(S(=O)(=O)c1cc(F)cc(F)c1)CCS2 [Example 262, 4-((1,5-Difluorophenyl)sulfonyl)-N-(2,4,6-trifluorobenzyl)-3,4-dihydro-2H-benzo[b-1,4]thiazine-6-carboxamide]	> 10
O=C(NCc1ccco1)c1ccc2c(c1)N(C(=O)c1ccccc1F)CCO2 [Example 263, 4-(2-fluorobenzoyl)-N-(furan-2-ylmethyl)-3,4-dihydro-2H-benzo[b-1,4]oxazine-6-carboxamide]	> 10
O=C(NCc1c(F)cc(F)cc1F)c1ccc2c(c1)N(C(=O)c1c(F)cccc1Cl)CCO2 [Example 264, 4-(2-chloro-6-fluorobenzoyl)-N-(2,4,6-trifluorobenzyl)-3,4-dihydro-2H-benzo[b-1,4]oxazine-6-carboxamide]	> 10
O=C(NCc1ccco1)c1ccc2c(c1)N(C(=O)c1c(F)cccc1Cl)CCO2 [Example 265, 4-(2-chloro-6-fluorobenzoyl)-N-(furan-2-ylmethyl)-3,4-dihydro-2H-benzo[b-1,4]oxazine-6-carboxamide]	> 10
O=C(NCc1ccco1)c1ccc2c(c1)N(Cc1ccccc1)C(=S)CS2 [Example 266, 4-Benzyl-N-(furan-2-ylmethyl)-3-thioxo-3,4-dihydro-2H-benzo[b-1,4]thiazine-6-carboxamide]	> 10

Reference: patent US20200138827A1, “SMALL MOLECULE MODULATORS OF HUMAN STING” (Curadev Pharma Limited, priority 2017, published 2020)
